For test [1], the system named is retinal edema induced by intravitreal injection of VEGF. In words: Retinal edema (Method #2), induced by intravitreal VEGF. It counts as in vivo, rat. As to conditions: LE rats, 1% solution topical, vehicle 0.363. On the procedure:
Retinal Edema (Method #2) Retinal edema was induced in rats by intravitreal injection of vascular endothelial growth factor (VEGF). LE rats were dosed topically (bilaterally) with either test compound or vehicle (10 μL eyedrops), followed by intravitreal injections of either saline (left eye) or VEGF (right eye). Five hours later, animals were again dosed topically with test compound or vehicle, and then injected i.p. with sodium fluorescein followed 45 later by ocular fluorophotometry to detect fluorescein leakage into the retina and vitreous chamber. EI was calculated according to the following formula: EI=(Fod−Fos)/Fos, where Fod=AUC value for fluorescence in the right eye, and Fos=AUC value for fluorescence in the left (saline injected) eye.

Test [2] deals with choroidal neovascularization. In words: Choroidal neovascularization induced by laser injury. In kind it is in vivo, mouse. As to conditions: C57BL/6 mice, 1% solution topical twice per day, 14 days; vehicle 16,192. On the procedure: Choroidal Neovascularization Choroidal neovasculariztion was induced in mice by laser injury. Laser photocoagulation was performed on the choroids of C57BL/6 mice, after which mice were dosed topically with test compound or vehicle for a total of 14 days (10 μL applied per eye twice per day). At the end of the 2 week dosing period, mice were perfused with fluorescein-labeled dextran (2×10^6 average molecular weight), eyes were removed and fixed in formalin, and choroidal flatmounts prepared. Laser injury sites were photographed by fluorescence microscopy and digital images were used to quantify the area of choroidal neovascularization.

Test [3] relates to retinal neovascularization. As to the kind of experiment: Retinal neovascularization, normoxia-hyperoxia-normoxia mouse pups. As to conditions: C57BL/6 mouse pups. In kind it is in vivo. On the procedure:
Retinal Neovascularization Retinal neovascularization was induced in mouse pups by cyclic exposure to normoxia-hyperoxia-normoxia. C57BL/6 mouse pups were exposed to hyperoxia (75% O2 environment) for 5 days starting at from postnatal day 7, then returned to a normoxic environment. Dosing was also initiated at this time (bilateral topical application of test compound or vehicle as a 10 μL eyedrops twice per day). After 5 days of dosing, retinal wholemounts were prepared and stained with a fluorescently labeled lectin that specifically stains murine endothelium. Digital images were captured by fluorescence microscopy and used to quantify total vascular area.

Test [4] deals with retinal edema induced by retinal ischemia. As to the kind of experiment: Retinal edema (Method #1), induced by retinal ischemia. In kind it is in vivo, rat. As to conditions: LE rats, 1% solution, topical bid × 5, retinal vein thrombosis; vehicle 5.2. How it is done: Retinal Edema (Method #1) Retinal edema was induced in rats by retinal ischemia. LE rats were injected i.v. with the photosensitizing dye Rose Bengal, followed by laser stimulation of a single retinal vein (in the right eye only) so as to induce thrombosis and thus retinal ischemia. Animals were dosed topically with either test compound or vehicle (10 μL eyedrops twice per day bilaterally) for a total of 5 dosings. Retinal edema was then measured by injecting animals i.p. with sodium fluorescein followed 45 later by ocular fluorophotometry to detect fluorescein leakage into the retina and vitreous chamber. An Edema Index (EI) was calculated according to the following formula: EI=(Fod−Fos)/Fos, where Fod=AUC value for fluorescence in the right eye, and Fos=AUC value for fluorescence in the left (treated but not thrombosed) eye.

The text below walks through data of patent US8030487B2, “2-amino—5-substituted pyrimidine inhibitors” (TargeGen, Inc., priority 2006, dated 2011).

`O=C(Nc1ccc(Cl)c(C(=O)Nc2cnc(Nc3ccc(OCCN4CCCC4)cc3)nc2)c1)c1cccc(C(F)(F)F)c1` [Compound XL, 2-Chloro-N-{2-[4-(2-Pyrrolidin-1-yl-ethoxy)-Phenylamino]-Pyrimidin-5-yl}-5-(3-Trifluoromethyl-Benzoylamino)-Benzamide] had an EI in test [1] of 0.110. Besides, the “Area (μm^2) of choroidal neovascularization” value in test [2] is on record as 9,388 μm^2. In addition, in test [3] (0.1% solution, twice per day, 5 days, P=0.009), the “reduction in retinal vascularization compared to vehicle” value came to 29%. The compound further yielded a % Reduction vs. Vehicle (retinal vascularization) in test [3] (1% of compound XL (table), topical bid × 5) of 29%. In test [3] (1% of compound XL (table), topical bid × 5, vehicle 8.269), the “Area (mm^2), total retinal vascular area” value was determined as 6.429 mm^2. For the same compound, the “Edema Index” value in test [4] is recorded as 2.3.
